In patent US20030129250A1, “Particulate compositions for improving solubility of poorly soluble agents” (Advanced Inhalation Research Inc., priority 2001, published 2003):

Test: Initial screening for poor solubility in aqueous media
Experimental: Many potential candidates were screened during this process. […] This list was then prioritized based on aqueous solubility, safety, and cost. […] This test was done by mixing […] of PBS and adding 10 mg of bulk drug. […] If the drug fully dissolved at this concentration, it was not considered for the testing.

[1] = PBS pH 7.4, 10 mg bulk drug in 0.3-1.0 L, criterion: no more soluble than 20 mg/L

Row | poor solubility screening in aqueous media [1] | poor solubility screening in aqueous media (pH 7.4) | Structure (SMILES)
1 | passed the initial screening | – | Cc1c(OCC(F)(F)F)ccnc1C[S+]([O-])c1nc2ccccc2[nH]1 (stereo not drawn) [lansoprazole]
2 | passed the initial screening | – | CN1C(C(=O)Nc2ccccn2)=C(O)c2ccccc2S1(=O)=O [piroxicam]
3 | – | passed the initial screening | COc1ccc(Cl)cc1C(=O)NCCc1ccc(S(=O)(=O)NC(=O)NC2CCCCC2)cc1 [glyburide, 1-[[p-[2-(5-chloro-o-anisamido)ethyl]phenyl]-sulfonyl]-3-cyclohexylurea]
